According to article PMC11811597, “Phenomics‐Based Discovery of Novel Orthosteric Choline Kinase Inhibitors” (Angewandte Chemie (International Ed. in English), 2025):
Entries after “also recorded” stand apart in the source; their conditions may differ.

Columns and labels:
[1] = target: T1, FAM195A (Homo sapiens, UniProt Q9BUT9); test: Competitive affinity-based chemoproteomics (UNC0965 matrix), MCF7 lysate; format: binding; details: 20 μM competitor, n=2
T1 construct: endogenous in cells; host or cells: MCF7 whole cell lysate
Description: A-366 and UNC0638 were purchased from Tocris. ARIAD and V-11-07-11 were purchased from Wuxi Apptec. UNC0737 and UNC0965 were synthesised as previously described.[1] Hemicholinium-3 and pyruvate kinase/lactic dehydrogenase enzymes were purchased from Sigma Aldrich. Aqueous and organic solvents were MS-grade and acquired by Sigma Aldrich unless stated otherwise.
MDA-MB-231, MCF7 and HEK293 cells were cultured in DMEM (Gibco, #11965092) supplemented with 10% FBS. K562 were cultured in IMDM (Gibco, #12440053) supplemented with 10% FBS. HepG2 were cultured in MEM (Gibco, #11095080) supplemented with 10 % FBS. […]
cultured in McCoy’s 5A (Sigma, M8403) supplemented with 10 % FBS and 1x GlutaMAX (Gibco, #35050061). Cells were maintained at 37 °C in a humidified 5% CO2 atmosphere. Peripheral blood mononuclear cells (PBMC) were isolated from healthy blood donors by density centrifugation. […]
Cell Titer-Glo® reagent was added to each well and total luminescence readings were performed within 15 min using the PHERAstar FSX (BMG Labtech). […]
(§1) Digested samples were analysed by nano-UPLC–MS/MS using a Dionex Ultimate 3000 nano UPLC fitted with an EASY spray column (75 μm × 500 mm, 2 μm particle size, Thermo Scientific), coupled to an Orbitrap Q Exactive instrument. […]

[2] = target: CHKA (Homo sapiens, UniProt P35790); test: Competitive affinity-based chemoproteomics (UNC0965 matrix), PBMC cell extract; format: binding; parameters: endogenous in cells; details: 20 µM competitor
Description: described.[2] Lysates were precleared with bead slurry (100 μL) for 30 min at 4 °C and then treated with UNC0638 or UNC0737 (20 μM) or DMSO control for 30 min at 4 °C followed by incubation with affinity matrix for 2 h at 4 °C. Affinity matrices were washed with buffer A (5 mL) and proteins eluted with 100 μL of 2x Laemmli sample buffer, 100 mM DTT, in PBS and heating for 10 min at 90 °C.
Eluents (70 µL) were diluted in 0.1 M Tris (pH 7.8) to 200 µL, reduced with 5 mM DTT for 30 min at RT, and alkylated with 20 mM iodoacetamide for 30 min at RT in the dark. Proteins were precipitated by sequential addition of MeOH (600 µL), CHCl3 (150 µL) and H2O (450 µL), pelleted (17,000 × g, 5 min), washed with further MeOH (2 × 600 µL), and re-pelleted. Air dried pellets were resuspended in 50 μL 6 M urea (pH 7.8) by vortexing and then diluted with 250 μL H2O before adding 1 µg trypsin for overnight incubation at 37 °C. The digests were acidified with FA (1% v/v final concentration), desalted using SOLA HRP SPE Cartridges (Thermo Fisher), eluted with 69% v/v MeCN, 0.1% v/v FA in H2O (600 μL) and dried in vacuo. Dried peptides were stored at -20 °C before resuspension in 2% v/v MeCN, 0.1% v/v FA in H2O (20 μL) for LC-MS/MS analysis.
LC-MS/MS Data Acquisition
as §1
Raw data was processed using MaxQuant[3] version 2.0.1.0 and the reference complete human proteome FASTA file (UniProt, downloaded 05.08.21). Label Free Quantification (LFQ) and Match Between Runs were selected; Cysteine carbamidomethylation was selected as a fixed modification, and methionine oxidation and asparagine deamidation as variable modifications. Default settings for identification and quantification were used. […]
mode selected for both identification and quantification of proteins (razor peptides are uniquely assigned to protein groups and not to individual proteins).

Chain of CHKA (P35790 whole entry): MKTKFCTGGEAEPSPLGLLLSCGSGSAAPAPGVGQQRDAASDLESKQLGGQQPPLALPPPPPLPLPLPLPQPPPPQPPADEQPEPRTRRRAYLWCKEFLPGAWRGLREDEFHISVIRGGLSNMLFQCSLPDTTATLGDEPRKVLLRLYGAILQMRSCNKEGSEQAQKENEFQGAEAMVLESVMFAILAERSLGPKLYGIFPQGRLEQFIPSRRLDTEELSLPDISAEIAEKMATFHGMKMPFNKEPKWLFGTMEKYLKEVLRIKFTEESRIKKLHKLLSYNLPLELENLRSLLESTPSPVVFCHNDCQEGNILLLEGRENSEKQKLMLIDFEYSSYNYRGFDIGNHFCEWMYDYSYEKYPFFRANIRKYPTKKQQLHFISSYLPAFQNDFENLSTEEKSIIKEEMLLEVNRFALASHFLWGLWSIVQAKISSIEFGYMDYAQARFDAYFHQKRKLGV
T1 sequence (Q9BUT9 whole entry): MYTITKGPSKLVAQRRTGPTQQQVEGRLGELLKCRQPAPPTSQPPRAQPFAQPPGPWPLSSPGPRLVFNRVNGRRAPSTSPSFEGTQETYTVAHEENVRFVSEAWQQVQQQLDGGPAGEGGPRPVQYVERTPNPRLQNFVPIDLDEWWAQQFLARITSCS

Structure (SMILES)	FC vs DMSO (log2 competition), FAM195A [1]	competition for CHKA binding to affinity matrix [2]
COc1cc2c(NC3CCN(C(C)C)CC3)nc(C3CCCCC3)nc2cc1OCCCN1CCCC1 [UNC0638]	-1.845	sole shared target
COc1cc2c(N(C)C3CCN(C(C)C)CC3)nc(C3CCCCC3)nc2cc1OCCCN1CCCC1 [UNC0737]	-0.06296	sole shared target; also recorded: reduced stronger
